IC50 data for 35 compounds are collected here from patent US8927715B2, “Inhibitors of 11β-hydroxysteroid dehydrogenase type 1” (Vitae Pharmaceuticals, Inc., priority 2006, dated 2015).

The target of one assay is T1, human 11β-HSD1 (Homo sapiens, UniProt P28845). In words: Scintillation Proximity Assay: inhibition of purified 11β-HSD1 (Biological Test Example 1). Conditions: purified recombinant 11β-HSD1, SPA; read-out: Biological Test Example 1 (IC50 class). The arrangement: made in house; host or cells: E. coli. Type of assay: biochemical. On the procedure: The inhibition of purified 11β-HSD1 by compounds of Formula I or I* is measured using a Scintillation Proximity Assay. All reactions are carried out at room temperature in 96 well flexible Microbeta reaction plates. First, 1 μL of a 0.1 mM solution of a compound of Formula I or I* is mixed in DMSO diluted in half-log increments (8 points) starting at 1 μM final concentration. To this dot is added 50 μL of substrate solution (50 mM HEPES, pH 7.4, 100 mM KCl, 5 mM NaCl, 2 mM MgCl2 containing 20 μM ^3H cortisone, 1 mM NADPH). […] The reaction is then incubated for 90 minutes, and stopped by adding 50 μl of SPA bead mix (18-β-glycyrrhetinic acid, 10 μM final, 5 mg/ml protein A coated YSi SPA beads, and 1 μg/ml α-cortisol antibody (East Coast Biologics)). The plate is shaken for 120 minutes, and the radioactivity corresponding to ^3H cortisol is measured on a Wallac Microbeta.
Target sequence in this assay (P28845 whole entry, species assumed): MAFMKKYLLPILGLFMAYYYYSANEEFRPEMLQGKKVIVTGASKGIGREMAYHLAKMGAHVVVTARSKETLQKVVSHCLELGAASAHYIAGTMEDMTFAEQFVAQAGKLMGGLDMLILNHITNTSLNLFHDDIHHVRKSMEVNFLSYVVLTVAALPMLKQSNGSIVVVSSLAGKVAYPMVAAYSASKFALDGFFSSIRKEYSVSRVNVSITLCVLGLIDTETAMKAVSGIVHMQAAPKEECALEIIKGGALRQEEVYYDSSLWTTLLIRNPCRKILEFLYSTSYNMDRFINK
What is called IC50 is the point on the concentration scale where inhibition reaches its midpoint. For the compound `CC(C)(C)OC(=O)N1CCC2(CCCN(C(=O)NC3C4CC5CC(C4)CC3C5)C2)C1` (racemic) [Example 10, (±)-tert-Butyl 7((2-adamantyl)carbamoyl)-2,7-diazaspiro[4.5]decane-2-carboxylate], the IC50 was 50 to 1000 nM.
`Cc1ccc2c(c1)C1(CCN(C(=O)OC3C4CC5CC(C4)CC3C5)CC1)CN2` (stereo not shown) [Example 22, 2-Adamantyl 5-methylspiro[indoline-3,4′-piperidine]-1′-carboxylate]: the IC50 is below 50 nM.
For the compound `O=C(O)C1CC2(CCN(C(=O)NC3C4CC5CC(C4)CC3C5)CC2)Oc2ccccc21` (racemic) [Example 13, (±)-1′-((2-Adamantyl)carbamoyl)spiro[chroman-2,4′-piperidine]-4-carboxylic acid], the IC50 is 50 to 1000 nM.
With `CC(C)(C)OC(=O)N1CC2(CCN(C(=O)OC3C4CC5CC(C4)CC3C5)CC2)c2ccccc21` (stereo not shown) [Example 128, 1-Tert-butyl 1′-(2-adamantyl)spiro[indoline-3,4′-piperidine]-1,1′-dicarboxylate], the IC50 was in the range of 50 to 1000 nM.
As for `CC(C)(C)OC(=O)N1Cc2ccccc2C2(CCN(C(=O)NC3C4CC5CC(C4)CC3C5)CC2)C1` (stereo not shown) [Example 29, Tert-butyl 1′-((2-adamantyl)carbamoyl)-1H-spiro[isoquinoline-4,4′-piperidine]-2(3H)-carboxylate], the IC50 is below 50 nM.
For the compound `CNC(=O)CC1CC2(CCN(C(=O)OC3C4CC5CC(C4)CC3C5)CC2)c2ccccc21` (racemic) [Example 26, (±)-2-Adamantyl 3-(2-(methylamino)-2-oxoethyl)-2,3-dihydrospiro[indene-1,4′-piperidine]-1′-carboxylate], the IC50 is below 50 nM.
For `CC(C)(C)OC(=O)N1CCC2(CCN(C(=O)NC3C4CC5CC(C4)CC3C5)CC2)CC1` (stereo not shown) [Example 8], the IC50 was in the range of 50 to 1000 nM.
As to `O=C(O)C1CC2(CCN(C(=O)NC3C4CC5CC(C4)CC3C5)CC2)c2ccccc21` (racemic) [Example 12, (±)-1′-((2-Adamantyl)carbamoyl)-2,3-dihydrospiro[indene-1,4′-piperidine]-3-carboxylic acid], the IC50 is below 50 nM.
As for `O=C(O)C1=CC2(CCN(C(=O)NC3C4CC5CC(C4)CC3C5)CC2)c2ccccc21` (stereo not shown) [Example 11, 1′-((2-Adamantyl)carbamoyl)spiro[indene-1,4′-piperidine]-3-carboxylic acid], the IC50 is below 50 nM.
For the compound `O=C(OC1C2CC3CC(C2)CC1C3)N1CCC2(CC1)OCc1ccccc12` (stereo not shown) [Example 84, 2-Adamantyl 3H-spiro[isobenzofuran-1,4′-piperidine]-1′-carboxylate], the IC50 is below 50 nM.
Same read-out and setting: the figure for “(±)-Ethyl 1′-(cyclohexylcarbamoyl)-2,3-dihydrospiro[indene-1,4′-piperidine]-3-carboxylate [Example 16]” is below 50 nM.
As for `CCOC(=O)C1=CC2(CCN(C(=O)NC3C4CC5CC(C4)CC3C5)CC2)c2ccccc21` (stereo not shown) [Example 15, Ethyl 1′-((2-adamantyl)carbamoyl)spiro[indene-1,4′-piperidine]-3-carboxylate], the IC50 was below 50 nM.
On to `O=C(NC1C2CC3CC(C2)CC1C3)N1CCC2(CC1)CNc1ccccc12` (stereo not shown) [Example 2, N-(2-Adamantyl)spiro[indoline-3,4′-piperidine]-1′-carboxamide], for which the IC50 was below 50 nM.
Take `CC(C)(C)OC(=O)N1CCC2(CCN(C(=O)NC3C4CC5CC(C4)CC3C5)CC2)C1` (stereo not shown) [Example 9, tert-Butyl 8-((2-adamantyl)carbamoyl)-2,8-diazaspiro[4.5]decane-2-carboxylate]: the concentration for half-maximal inhibition (IC50) was in the range of 50 to 1000 nM.
Same read-out and setting: the figure for `O=C(O)CCCC(=O)N1Cc2ccccc2C2(CCN(C(=O)NC3C4CC5CC(C4)CC3C5)CC2)C1` (stereo not shown) [Example 95, 5-(1′(2-Adamantylcarbamoyl)-1H-spiro[isoquinoline-4,4′-piperidine]-2(3H)-yl)-5-oxopentanoic acid] is 50 to 1000 nM; for `CS(=O)(=O)N1CC2(CCN(C(=O)NC3C4CC5CC(C4)CC3C5)CC2)c2ccccc21` (stereo not shown) [Example 19, N-(2-Adamantyl)-1-(methylsulfonyl)spiro[indoline-3,4′-piperidine]-1′-carboxamide] it is below 50 nM.
For the compound `O=C(OC1C2CC3CC(C2)CC1C3)N1CCC2(CC1)CNc1ccc(F)cc12` (stereo not shown) [Example 21, 2-Adamantyl 5-fluorospiro[indoline-3,4′-piperidine]-1′-carboxylate], the IC50 was below 50 nM.
Take `O=C(OC1C2CC3CC(C2)CC1C3)N1CCC2(CC1)CNc1ccccc12` (stereo not shown) [Example 20, 2-Adamantyl spiro[indoline-3,4′-piperidine]-1′-carboxylate]: the IC50 was below 50 nM.
On to `CCOC(=O)CC1CC2(CCN(C(=O)NC3C4CC5CC(C4)CC3C5)CC2)Oc2ccccc21` (racemic) [Example 18, (±)-Ethyl 2-1′-((2-adamantyl)carbamoyl)spiro[chroman-2,4′-piperidine]-4-yl)acetate], for which the IC50 fell in the range of 50 to 1000 nM.
`COC(=O)CC1CC2(CCN(C(=O)OC3C4CC5CC(C4)CC3C5)CC2)c2ccccc21` (racemic) [Example 24, (±)-2-Adamantyl 3-(2-methoxy-2-oxoethyl)-2,3-dihydrospiro[indene-1,4′-piperidine]-1′-carboxylate]: the IC50 was below 50 nM.
With “(±)-2-(1′-(Cyclohexylcarbamoyl)spiro[chroman-2,4′-piperidine]-4-yl)acetic acid [Example 14]”, the IC50 fell in the range of 50 to 1000 nM.
`CC(C)(C)OC(=O)N1CC2(CCN(C(=O)OC3C4CC5CC(C4)CC3C5)CC2)c2cc(F)ccc21` (stereo not shown) [Example 129, 1-Tert-butyl 1′-(2-adamantyl) 5-fluorospiro[indoline-3,4′-piperidine]-1,1′-dicarboxylate]: the IC50 lay within 50 to 1000 nM.
“(±)-Ethyl 1′-(cyclohexylcarbamoyl)spiro[chroman-2,4′-piperidine]-4-carboxylate [Example 17]”: the IC50 lay within 50 to 1000 nM.
Regarding `O=C(NC1C2CC3CC(C2)CC1C3)N1CCC2(CC1)CNCc1ccccc12` (stereo not shown) [Example 30, N-(2-Adamantyl)-2,3-dihydro-1H-spiro[isoquinoline-4,4′-piperidine]-1′-carboxamide], the IC50 is below 50 nM.
As for `CC(C)(C)OC(=O)N1CC2(CCN(C(=O)NC3C4CC5CC(C4)CC3C5)CC2)c2ccccc21` (stereo not shown) [Example 1, Tert-butyl 1′-((2-adamantyl)carbamoyl)spiro[indoline-3,4′-piperidine]-1-carboxylate], the IC50 is below 50 nM.
Turning to `CC(=O)N1CC2(CCN(C(=O)OC3C4CC5CC(C4)CC3C5)CC2)c2ccccc21` (stereo not shown) [Example 23, 2-Adamantyl 1-acetylspiro[indoline-3,4′-piperidine]-1′-carboxylate], the IC50 is below 50 nM.
On to `O=C(O)CC1CC2(CCN(C(=O)OC3C4CC5CC(C4)CC3C5)CC2)c2ccccc21` (stereo not shown) [Example 25, 2-(1′-((2-Adamantyloxy)carbonyl)-2,3-dihydrospiro[indene-1,4′-piperidine]-3-yl)acetic acid], for which the IC50 was below 50 nM.
On the same count and under the same terms, the figure for `CC(=O)N1Cc2ccccc2C2(CCN(C(=O)NC3C4CC5CC(C4)CC3C5)CC2)C1` (stereo not shown) [Example 31, 2-Acetyl-N-(2-adamantyl)-2,3-dihydro-1H-spiro[isoquinoline-4,4′-piperidine]-1′-carboxamide] is below 50 nM.
As to `Cc1ccc2c(c1)C1(CCN(C(=O)OC3C4CC5CC(C4)CC3C5)CC1)CN2C(=O)OC(C)(C)C` (stereo not shown) [Example 130, 1-Tert-butyl 1′-(2-adamantyl) 5-methylspiro[indoline-3,4′-piperidine]-1,1′-dicarboxylate], the IC50 fell in the range of 50 to 1000 nM.
Take `CC(=O)N1CC2(CCN(C(=O)NC3C4CC5CC(C4)CC3C5)CC2)c2ccccc21` (stereo not shown) [Example 7, 1-Acetyl-N-(2-adamantyl)spiro[indoline-3,4′-piperidine]-1′-carboxamide]: the IC50 was below 50 nM.

The target in the next assay is T1, human 11β-HSD1. In words: Inhibition of a microsomal preparation of 11β-HSD1, SPA (Biological Test Example 2). Type of assay: biochemical. The arrangement: expressed in transfected cells; host or cells: CHO cells (microsomes). Conditions: read-out: Biological Test Example 2 (IC50 class). In a few lines: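 Microsomes from CHO cells overexpressing human 11β-HSD1 (10-20 μg/ml total protein) added after 10 min compound pre-incubation, then 90 min at room temperature. Stopped with 18β-glycyrrhetinic acid (10 nM), protein A SPA beads and anti-cortisol antibody; [3H]cortisol measured by SPA after 120 min.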
Target sequence in this assay (P28845 whole entry): as the sequence (P28845 whole entry, species assumed) above
For the compound `O=C(OC1C2CC3CC(C2)CC1C3)N1CCC2(CC1)OCc1ccccc12` (stereo not shown) [Example 84, 2-Adamantyl 3H-spiro[isobenzofuran-1,4′-piperidine]-1′-carboxylate], the IC50 is below 50 nM.
As for `O=C(O)CCCC(=O)N1Cc2ccccc2C2(CCN(C(=O)NC3C4CC5CC(C4)CC3C5)CC2)C1` (stereo not shown) [Example 95, 5-(1′(2-Adamantylcarbamoyl)-1H-spiro[isoquinoline-4,4′-piperidine]-2(3H)-yl)-5-oxopentanoic acid], the IC50 is below 50 nM.
As for `O=C(NC1C2CC3CC(C2)CC1C3)N1CCC2(CC1)CNCc1ccccc12` (stereo not shown) [Example 30, N-(2-Adamantyl)-2,3-dihydro-1H-spiro[isoquinoline-4,4′-piperidine]-1′-carboxamide], the IC50 was below 50 nM.
Turning to `CC(=O)N1CC2(CCN(C(=O)OC3C4CC5CC(C4)CC3C5)CC2)c2ccccc21` (stereo not shown) [Example 23, 2-Adamantyl 1-acetylspiro[indoline-3,4′-piperidine]-1′-carboxylate], the IC50 is below 50 nM.
As to `CC(=O)N1Cc2ccccc2C2(CCN(C(=O)NC3C4CC5CC(C4)CC3C5)CC2)C1` (stereo not shown) [Example 31, 2-Acetyl-N-(2-adamantyl)-2,3-dihydro-1H-spiro[isoquinoline-4,4′-piperidine]-1′-carboxamide], the IC50 was below 50 nM.
Consider “4-(1′-(2-Adamantyloxycarbonyl)-1H-spiro[isoquinoline-4,4′-piperidine]-2(3H)-yl)-4-oxobutanoic acid [Example 94]”, for which the concentration for half-maximal inhibition (IC50) is below 50 nM.
With `CN1Cc2ccccc2C12CCN(C(=O)NC1C3CC4CC(C3)CC1C4)CC2` (stereo not shown) [Example 86, N-(2-Adamantyl)-2-methylspiro[isoindoline-1,4′-piperidine]-1′-carboxamide], the IC50 is below 50 nM.
On to `CC(C)S(=O)(=O)N1Cc2ccccc2C2(CCN(C(=O)OC3C4CC5CC(C4)CC3C5)CC2)C1` (stereo not shown) [Example 40, 2-Adamantyl 2-(isopropylsulfonyl)-2,3-dihydro-1H-spiro[isoquinoline-4,4′-piperidine]-1′-carboxylate], for which the IC50 was below 50 nM.
For the compound `NC(=O)C12CC3CC(C1)C(OC(=O)N1CCC4(CC1)CC(CC(=O)O)c1ccccc14)C(C3)C2` (stereo not shown) [Example 73, 2-(1′-((1-Carbamoyl-4adamantyloxy)carbonyl)-2,3-dihydrospiro[indene-1,4′-piperidine]-3-yl)acetic acid], the IC50 is below 50 nM.
In the case of `CN(C)CCN(C)C(=O)CC1CC2(CCN(C(=O)NC3C4CC5CC(C4)CC3C5)CC2)c2c(Br)cccc21` (stereo not shown) [Example 116], the IC50 was below 50 nM.
